# According to patent US20110119780A1, “SCREENING FOR NON-GENOTOXIC CARCINOGENS” (priority 2008, published 2011):
# Several values for one entry are separate records, joined by “and”; a condition that tells them apart may be missing. Identical values can stand only once.
# Columns and labels:
# [1] = system: hepatocellular apoptosis; assay: Liver in situ cell death, TUNEL labelling assay (apoptotic indices); type: in vivo; conditions: WT, huPXR/huCAR and PXRKO/CARKO mice; Student's t-test
# Text: Livers sections were labelled using a TUNEL in situ cell detection kit (Roche). […] Data represents random sampling of 20 images per lobes (2) counting approximately 380,000 cells/animal group.
# However, no such consistency has been observed in mice. An indirect TUNEL labelling assay was used to analyse hepatic in situ death (FIG. 9/Table 21). The present study has shown a marker variation in apoptotic indices in mouse liver. Thus, small (e.g. 50%) compound-induced decreases, upon a low background, were not readily demonstrable.
# [2] = system: Cyp3a11; assay: Hepatic P450 induction: benzyloxyquinoline debenzylation (BQ) in liver microsomes; type: in vivo, mouse; conditions: 80 mg/kg IP x4 days
# Procedure: (§1) Each assay was performed on individual liver microsomes. Values are expressed as Mean±SD (n=9/10).
# [3] = system: hepatocellular proliferation; assay: Hepatic cell proliferation, BrdU incorporation (S-phase labelling index); conditions: for % mean (S-phase labelling index relative to control of the same mouse line = 100) / % BrDu positive Cells, Mean / % BrDu positive Cells (hepatic S-phase labelling index), individual mouse: PB-treated; for % BrDu positive Cells, Mean: group mean; for % BrDu positive Cells (hepatic S-phase labelling index), individual mouse: individual animals
# Procedure: Osmotic pumps containing BrdU (15 mg/ml/PBS) were implanted into WT, huPXR/huCAR and PXRKO/CARKO mice prior to PB treatment (80 mg/kg/4 days/IP). Livers sections were labelled using a Brdu antibody (Dako). All microscopic images were captured at a magnification of 40×. Data represents random sampling of 10 images per lobes (2) counting approximately 180,000 cells/animal group, as according to Pat-0013-0014. Values are expressed as Mean±SD, n=9-10 for control mice, n=8-9 for PB-treated mice.
# (§2) The study consisted of 6 groups with 10 WT mice per group, 9-10 PXRKO/CARKO mice per group and 9 huPXR/huCAR mice per group (Table 19). […] On Day 1 all animals were dosed with either 80 mg/kg PB/saline or saline alone by intraperitoneal injection for 4 days as detailed in Table 19.
# All mouse liver and duodenum sections were analysed for BrdU incorporation as a measure of cell proliferation. The method used was an indirect BrdU labelling assay.
# [4] = system: hepatocellular hypertrophy; assay: H&E analysis of liver sections, PB; type: in vivo, mice; conditions: 80 mg/kg IP x4 days
# Text: Portal vein (P) and central vein (C) are labelled. A 20× objective lens was used to capture the images.
# Two samples of the liver (one from the lobe, one from the median lobe) and one sample of the small intestine were taken and preserved in 4% neutral buffered formaldehyde (NBF). The preserved liver samples of all mice of all groups were trimmed, processed and embedded in paraffin. The paraffin-embedded samples were sent to Progenix, Inverkeithing, UK where they were sectioned at a nominal thickness of about 5 æm and then stained with haematoxylin and eosin (H&E). One section of each organ sample was examined by Dr. Ortwin Vogel, Consultant Pathologist, Kiel, Germany. Subsequent to his histopatholoical analysis of all H&E stained mouse livers and small intestines, Dr. Vogel reported the following finding;
# [5] = system: Cyp2b10 and Cyp3a11; assay: Cyp2b10 and Cyp3a11 protein in pooled liver microsomes by Western blotting, PB; type: in vivo, mouse
# Procedure: Liver microsomes (0.3 ug) from each animal were pooled (n=9/10) for wild type, huPXR/huCAR and PXRKO/CARKO mice and characterised for Cyp2b10 and Cyp3a11 by immunoblotting using rabbit polyclonal CH4 (1:2000 dilution) and CH32 antibodies (1:2000 dilution), respectively (C. Henderson, University of Dundee, UK); +ve, control was either purified recombinant his-tagged Cyp3a11 membranes (0.1 pmol/u.l) or purified recombinant his-tagged Cyp2b10 membranes (O.Olpmol/u.l). Blots were developed using ECL and exposed for 30 secs.
# [6] = system: Cyp3a11 and Cyp2b10; assay: Inductive effect of Phenobarbital in a panel of PXR/CAR knockout and humanised mice
# [7] = system: Cyp1a1/1a2; assay: Hepatic P450 induction: MROD and EROD in liver microsomes; conditions: 80 mg/kg IP x4 days
# Procedure: as §1
# P450 catalytic activities in the liver microsomal fractions were quantified. For the quantification of mouse Cyp2b10 and Cyp3a11 activities, the dealkylation of pentoxyresofurin (PROD) and the debenzylation of benzyloxyquinoline (BQ) activities, respectively. In addition, […] (BROD), methoxyresorufin-O-demethylase (MROD) and 7-ethoxyresorufin-)-deethylase (EROD) activities were also measured and evaluated (see FIG. 11).
# EROD activity is indicative of Cyp1a1/1a2 and Cyp1b1 in the mouse, whereas MROD is a substrate for Cyp1a2. However, other isoforms may be contributing to the measured activities.
# [8] = PXR/CAR-dependent hepatomegaly by PB (body, liver weights); conditions: 80 mg/kg IP x4 days; for Body weight - Day 1 / Body weight - Day 5 / Liver weight / Liver/Body weight Ratio: Mean ± SD
# Text: In order to assess whether humanised PXR/CAR mice mimic the response to PB in humans, the huPXR/huCAR and PXRKO/CARKO mouse models were used. The mutant mouse strains were obtained from Artemis. The WT mouse strain C57BL/6J was obtained from Harlan (UK). All animals were between 10 and 16 weeks of age.The following parameters were studied: • Liver/body weight ratios • BrdU incorporation analysed as a measure of cell proliferation • Haematoxylin and eosin (H&E) liver histopathology • Expression and activity of P450s by SDS-PAGE and Western blotting in liver microsomes • Apoptotic indices as analysed by TUNEL assay in the liver
# as §2
# Following treatment with PB or the vehicle, the mice were sacrificed and their livers were removed and weighed.
# [9] = system: Cyp2b10; assay: Hepatic P450 induction: PROD and BROD in liver microsomes; type: in vivo, mouse; conditions: 80 mg/kg IP x4 days
# Procedure: as §1
# BROD and PROD are markers of Cyp2b10 activity in the mouse. […] However, PROD or BROD activities were not altered in the PXRKO/CARKO mice upon exposure to PB. Overall, PB induced P450 catalytic activities in the WT and huPXR/huCAR mouse lines, but not in the animals which were devoid of these receptors.
structure (smiles),measurement,setting,value
"CCC1(c2ccccc2)C(=O)NC(=O)NC1=O [PB, Phenobarbital]","Hepatic apoptotic indices (TUNEL), PB-treated vs control",[1],no statistical significance found
same,Cyp3a11 induction (BQ activity),[2]; PXRKO/CARKO mice,absence of Cyp3a11 induction
same,BQ activity,"[2]; WT animals, liver microsomes",marginal increase
same,"BQ activity, increase","[2]; huPXR/huCAR mice, liver microsomes",5 fold
same,% mean (S-phase labelling index relative to control of the same mouse line = 100),[3]; PXRKO/CARKO mice,144%
same,"% BrDu positive Cells, Mean",[3]; PXRKO/CARKO mice,2.83%
same,"% BrDu positive Cells (hepatic S-phase labelling index), individual mouse",[3]; PXRKO/CARKO mice,2.16% and 1.98% and 1.82% and 2.30% and 3.77% and 5.10% and 3.71% and 1.88% and 3.06% and 2.51%
same,% mean (S-phase labelling index relative to control of the same mouse line = 100),[3]; WT mice,531%
same,"% BrDu positive Cells, Mean",[3]; WT mice,9.30%
same,"% BrDu positive Cells (hepatic S-phase labelling index), individual mouse",[3]; WT mice,9.45% and 5.54% and 16.69% and 6.32% and 9.50% and 8.09% and 7.64% and 13.60%
same,"hepatocellular labelling index (S-phase), increase","[3]; WT mice, 80 mg/kg IP x4 days, BrdU",approximately 5 fold
same,% mean (S-phase labelling index relative to control of the same mouse line = 100),[3]; huPXR/huCAR mice,104%
same,"% BrDu positive Cells, Mean",[3]; huPXR/huCAR mice,2.00%
same,"% BrDu positive Cells (hepatic S-phase labelling index), individual mouse",[3]; huPXR/huCAR mice,0.37% and 0.-18% and 1.19% and 1.86% and 3.GO and 1.98% and 3.18% and 3.24% and 2.13%
same,effect on cell proliferation (BrdU labelling),"[3]; huPXR/huCAR or PXRKO/CARKO mice, 80 mg/kg IP x4 days",no effect
same,hepatocellular hypertrophy (H&E),[4]; PXRKO/CARKO mice,no unequivocal evidence
same,"liver growth response (hypertrophy, hyperplasia), conclusion",[4]; PXRKO/CARKO mice,did not induce hepatomegaly
same,"liver growth response (hypertrophy, hyperplasia), conclusion",[4]; WT mice,induced hypertrophy and hyperplasia
same,centrilobular hepatocellular hypertrophy (H&E),[4]; huPXR/huCAR and WT animals,slight to moderate
same,"liver growth response (hypertrophy, hyperplasia), conclusion",[4]; huPXR/huCAR mice,induced hypertrophy but not hyperplasia
same,Cyp2b10 and Cyp3a11 protein induced (Western blotting),[5]; PXRKO/CARKO animals,not
same,Cyp2b10 and Cyp3a11 protein (Western blotting),[5]; WT and humanised mouse lines,induced
same,activation of Cyp3a11 and Cyp2b10 in vivo,[6],predominantly CAR-dependent
same,MROD and EROD enzyme activities,[7]; PXRKO/CARKO line,no increase
same,MROD and EROD enzyme activities,[7]; WT and huPXR/huCAR mice,increased
same,"Body weight - Day 1, % mean own control",[8]; PXRKO/CARKO mice,(100 ± 8) %
same,"Body weight - Day 5, % mean own control",[8]; PXRKO/CARKO mice,(98 ± 8) %
same,"Liver weight, % mean own control",[8]; PXRKO/CARKO mice,(98 ± 16) %
same,"Liver/Body weight Ratio, % mean own control",[8]; PXRKO/CARKO mice,(100 ± 9) %
same,Body weight - Day 1,[8]; PXRKO/CARKO mice,27.2 ± 2.2 g
same,Body weight - Day 5,[8]; PXRKO/CARKO mice,26.6 ± 2.2 g
same,Liver weight,[8]; PXRKO/CARKO mice,1.42 ± 0.23 g
same,Liver/Body weight Ratio,[8]; PXRKO/CARKO mice,5.3 ± 0.4
same,"Body weight - Day 1, % mean own control",[8]; WT mice,(106 + 6) %
same,"Body weight - Day 5, % mean own control",[8]; WT mice,(84 ± 5) %
same,"Liver weight, % mean own control",[8]; WT mice,(101 ± 6) %
same,Body weight - Day 1,[8]; WT mice,26.4 ± 1.8 g
same,Body weight - Day 5,[8]; WT mice,23.2 ± 1.3 g
same,Liver weight,[8]; WT mice,1.44 ± 0.09 g
same,Liver/Body weight Ratio,[8]; WT mice,6.2 ± 0.2
same,"Body weight - Day 1, % mean own control",[8]; huPXR/huCAR mice,(104 ± 5) %
same,"Body weight - Day 5, % mean own control",[8]; huPXR/huCAR mice,(99 ± 6) %
same,"Liver weight, % mean own control",[8]; huPXR/huCAR mice,(121 ± 11) %
same,Body weight - Day 1,[8]; huPXR/huCAR mice,26.3 ± 1.2 g
same,Body weight - Day 5,[8]; huPXR/huCAR mice,25.4 ± 1.5 g
same,Liver weight,[8]; huPXR/huCAR mice,1.69 ± 0.16 g
same,Liver/Body weight Ratio,[8]; huPXR/huCAR mice,6.7 ± 0.6
same,PROD or BROD activities,[9]; PXRKO/CARKO mice,not altered
same,Cyp2b10 induction (BROD and PROD activities),"[9]; WT and huPXR/huCAR mouse lines, at similar levels",marker Cyp2b10 induction was observed
